Laboratory results published in patent US20130178413A1, “HCV NS3 PROTEASE INHIBITORS” (priority 2010, published 2013).
Read-outs that look alike come from different tables or passages of the source.

Columns and labels:
NS3/4A protease gt 3a = NS3/4A protease gt 3a (Hepatitis C virus genotype 3a, UniProt Q81258); experiment: HCV NS3 protease time-resolved fluorescence (TRF) assay, NS3/4A inhibitory activity (Ki), gt 3a; assay type: biochemical; conditions: genotype 3a NS3/4A; read-out: Enzyme Activity gt 3a Ki
Method: (§1) The HCV NS3 protease inhibitory activity of the present compounds may be tested using assays known in the art. One such assay is HCV NS3 protease time-resolved fluorescence (TRF) assay as described below and in International Patent Application Publication WO2006/102087. Other examples of such assays are described in e.g., International Patent Application Publication WO2005/046712. HCV NS3 protease inhibitors, such as those described herein have a Ki less than 50 μM, such as less than 10 μM, and less than 100 nM. Ki is determined by an NS3 protease assay. The assay is performed in a final volume of 100 μl in assay buffer containing 50 mM HEPES, pH 7.5, 150 mM NaCl, 15% glycerol, 0.15% TRITON X-100, 10 mM DTT, and 0.1% PEG 8000. NS3 protease is pre-incubated with various concentrations of inhibitors in DMSO for 30 minutes. The reaction is initiated by adding the TRF peptide substrate (final concentration 100 nM). NS3 mediated hydrolysis of the substrate is quenched after 1 hour at room temperature with 100 μl of 500 mM MES, pH 5.5. Product fluorescence is detected using either a VICTOR V2 or FUSION fluorophotometer (Perkin Elmer Life and Analytical Sciences) with excitation at 340 nm and emission at 615 nm with a 400 μs delay. Testing concentrations of different enzyme forms are selected to result in a signal to background ratio (S/B) of 10-30. IC50 values are derived using a standard four-parameter fit to the data. Ki values are derived from IC50 values using the following formula,
(§2) IC50=Ki(1+[S]/KM), Eqn (1),
(§3) where [S] is the concentration of substrate peptide in the reaction and KM is the Michaelis constant. See P. Gallinari et al., 38 BIOCHEM. 5620-32 (1999); P. Gallinari et al., 72 J. VIROL. 6758-69 (1998); M. Taliani et al., 240 ANAL. BIOCHEM. 60-67 (1996).
(§4) One such assay is HCV NS3 protease time-resolved fluorescence (TRF) assay as described below and in Mao et al., Anal Biochem. 373:1-8, 2008 and International Patent Application Publication WO 2006/102087. A NS3 protease assay can be performed, for example, in a final volume of 100 μl assay buffer containing 50 mM HEPES, pH 7.5, 150 mM NaCl, 15% glycerol, 0.15% TRITON X-100, 10 mM DTT, and 0.1% PEG 8000. NS3 and NS4A protease is pre-incubated with various concentrations of inhibitors in DMSO for 30 minutes. The reaction is initiated by adding the TRF peptide substrate (final concentration 100 nM). NS3 mediated hydrolysis of the substrate is quenched after 1 hour at room temperature with 100 μl of 500 mM MES, pH 5.5. Product fluorescence is detected using either a VICTOR V2 or FUSION fluorophotometer (Perkin Elmer Life and Analytical Sciences) with excitation at 340 nm and emission at 615 nm with a 400 μs delay. Testing concentrations of different enzyme forms are selected to result in a signal to background ratio (S/B) of 10-30. IC50 values are derived using a standard four-parameter fit to the data. Ki values are derived from IC50 values using the following formula,
as §3, with “(1996); Mao et al., Analytical Biochemistry 373: 1-8, 2008. Measuring Compound Inhibitory Potency (Replicon EC50 (nM))” for “(1996).”

NS3/4A protease gt 1b = NS3/4A protease gt 1b (Hepatitis C virus genotype 1b, UniProt P26663); experiment: HCV NS3 protease time-resolved fluorescence (TRF) assay, NS3/4A inhibitory activity (Ki), gt 1b; assay type: biochemical; conditions: genotype 1b NS3/4A; read-out: Enzyme Activity gt 1b Ki
Method: as §1, §2, §3, §4
as §3, with “(1996); Mao et al., Analytical Biochemistry 373: 1-8, 2008. Measuring Compound Inhibitory Potency (Replicon EC50 (nM))” for “(1996).”

gt 1b Replicon = experiment: HCV replicon assay, compound inhibitory potency (Replicon EC50); assay type: cell-based; conditions: Hepatitis C virus, GT1B
Method: Measurement of inhibition by compounds was performed using the HCV replicon system. Several different replicons encoding different HCV genotypes or mutations were used. In addition, potency measurements were made using different formats of the replicon assay, including different ways of measurements and different plating formats. See Jan M. Vrolijk et al., A replicons-based bioassay for the measurement of interferons in patients with chronic hepatitis C, 110 J. VIROLOGICAL METHODS 201 (2003); Steven S. Carroll et al., Inhibition of Hepatitis C Virus RNA Replication by 2′-Modified Nucleoside Analogs, 278(14) J. BIOLOGICAL CHEMISTRY 11979 (2003). However, the underlying principles are common to all of these determinations, and are outlined below.
Stable neomycin phosphotransferase encoding replicon-harboring cell lines were used, so all cell lines were maintained under G418 selection prior to the assay. In some cases the cell lines encoded a luciferase:Neor fusion and could be assayed either directly by determination of RNA copy number, or indirectly through measurement of the luciferase activity.
To initiate an assay, replicon cells were plated in the presence of a dilution series of test compound in the absence of G418. Typically, the assays were performed in a 96-well plate format for manual operation, or a 384 well plate in an automated assay. Replicon cells and compound were incubated for 24-48 hours, depending on the assay. At the end of the assay, cells are washed free of media and compound and then lysed. For direct quantitation, RNA levels were measured by ^32P-probe hybridization and protection, or in a TAQMAN based assay and normalized to cellular cyclophilin A RNA levels. In some cases, luciferase activity was measured using a conventional luciferase assay. In all cases EC50 determinations were calculated as a percent of a DMSO control by fitting the data to a four parameter fit function.

[1] = target: NS3/4A protease gt 1b A156V (Hepatitis C virus genotype 1b, UniProt P26663, A1182V); experiment: HCV NS3 protease time-resolved fluorescence (TRF) assay, NS3/4A inhibitory activity (Ki), gt 1b A156V mutant; assay type: biochemical, hepatitis C virus (HCV)
Method: as §1, §2, §3, §4
as §3, with “(1996); Mao et al., Analytical Biochemistry 373: 1-8, 2008. Measuring Compound Inhibitory Potency (Replicon EC50 (nM))” for “(1996).”

Structure (SMILES)	Ki (NS3/4A protease gt 3a) [nM]	Ki (NS3/4A protease gt 1b) [nM]	EC50 (gt 1b Replicon; 10% Fetal Bovine Serum, read-out: gt 1b Replicon EC50 10% FBS) [nM]	EC50 (gt 1b Replicon; 50% Normal Human Serum, read-out: gt 1b Replicon EC50 50% NHS) [nM]	Ki [1] [nM]
C=C[C@@H]1C[C@]1(NC(=O)[C@@H]1C[C@@H]2CN1C(=O)[C@H](C(C)(C)C)NC(=O)O[C@@]1(C)C[C@@H]1CCCCCc1nc3ccccc3nc1O2)C(=O)NS(=O)(=O)C1CC1 [Example I-9, (1aS,5S,8S,10R,22aS)-5-tert-butyl-N-{(1R,2S)-1-[(cyclopropylsulfonyl)carbamoyl]-2-ethenylcyclopropyl}-1a-methyl-3,6-dioxo-1,1a,3,4,5,6,9,10,18,19, 20,21,22,22a-tetra decahydro-8H-7,10-methanocyclopropa[18, 19][1,10,3,6]dioxadiaza cyclononadecino[11,12-b]quinoxaline-8-carboxamide]	12.5	0.06			
CC[C@@H]1C[C@]1(NC(=O)[C@@H]1C[C@@H]2CN1C(=O)[C@H](C(C)(C)C)NC(=O)O[C@]1(C)C[C@H]1CCCCCc1nc3ccc(OC)cc3cc1O2)C(=O)NS(=O)(=O)C1CC1 [Example I-11]	0.5	0.03	4	7	
C=C[C@@H]1C[C@]1(NC(=O)[C@@H]1C[C@@H]2CN1C(=O)[C@H](C(C)(C)C)NC(=O)O[C@@]1(C)C[C@@H]1CC/C=C/c1cccc3c1CN(C3)C(=O)O2)C(=O)NS(=O)(=O)C1CC1 [Example I-14, (1aS,5S,8S,10R,19E,22aS)-5-tert-butyl-N-{(1R,2S)-1-[(cyclopropylsulfonyl)carbamoyl]-2-ethenylcyclopropyl}-1a-methyl-3,6,12-trioxo-1,1a,3,4,5,6,9, 10,14,21,22,22a-dodecahydro-8H-7,10:13,15-dimethano cyclopropa[n][4,13,2,8, 11]benzodioxatriaza cyclohenicosine-8(12H)-carboxamide]	112	0.08			6.3
C=C[C@@H]1C[C@]1(NC(=O)[C@@H]1C[C@@H]2CN1C(=O)[C@H](C(C)(C)C)NC(=O)O[C@]1(C)C[C@H]1CC/C=C/c1cccc3c1CN(C3)C(=O)O2)C(=O)NS(=O)(=O)C1CC1 [Example I-15, (1aR,5S,8S,10R,19E,22aR)-5-tert-butyl-N-{(1R,2S)-1-[(cyclopropylsulfonyl)carbamoyl]-2-ethenylcyclopropyl}-1a-methyl-3,6,12-trioxo-1,1a,3,4,5,6,9, 10,14,21,22,22a-dodecahydro-8H-7,10: 13,15-dimethanocyclo propa[n][4,13,2,8,11] benzodioxatriazacyclo henicosine-8(12H)-carboxamide]	93.5	0.09			8.9
C=C[C@@H]1C[C@]1(NC(=O)[C@@H]1C[C@@H]2CN1C(=O)[C@H](C1CCCC1)NC(=O)O[C@]1(C)CCC[C@H]1CC/C=C/Cc1c(nc3ccccc3c1OCc1ccccc1)O2)C(=O)NS(=O)(=O)C1CC1 [Example I-17, (3aR,7S,10S,12R,21E, 24aS)-19-(benzyloxy)-7-cyclopentyl-N-{(1R,2S)-1-[(cyclopropylsulfonyl)carbamoyl]-2-ethenylcyclopropyl}-3a-methyl-5,8-dioxo-1,2,3,3a,5,6,7,8,11,12, 20,23,24,24a-tetradeca hydro-10H-9,12-methanocyclopenta[18, 19][1,10,3,6]dioxadiaza cyclononadecino[11,12-b]quinoline-10-carboxamide]	27.9	0.07			9.6
C=C[C@@H]1C[C@]1(NC(=O)[C@@H]1C[C@@H]2CN1C(=O)[C@H](C(C)(C)C)NC(=O)O[C@]1(C)C[C@H]1CCCCc1cccc3c1CN(C3)C(=O)O2)C(=O)NS(=O)(=O)C1CC1 [Example I-20, (1aR,5S,8S,10R,22aR)-5-tert-butyl-N-{(1R,2S)-1-[(cyclopropylsulfonyl)carbamoyl]-2-ethenylcyclopropyl}-1a-methyl-3,6,12-trioxo-1,1a,3,4,5,6,9, 10,14,19,20,21,22,22a-tetradecahydro-8H-7,10:13,15-dimethano cyclopropa[n][4,13,2,8, 11]benzodioxatriaza cyclohenicosine-8(12H)-carboxamide]	58.3	0.02			27.2
C=C[C@@H]1C[C@]1(NC(=O)[C@@H]1C[C@@H]2CN1C(=O)[C@H](C(C)(C)C)NC(=O)O[C@@]1(C)C[C@@H]1CCCCc1cccc3c1CN(C3)C(=O)O2)C(=O)NS(=O)(=O)C1CC1 [Example I-21, (1aS,5S,8S,10R,22aS)-5-tert-butyl-N-{(1R,2S)-1-[(cyclopropylsulfonyl)carbamoyl]-2-ethenylcyclopropyl}-1a-methyl-3,6,12-trioxo-1,1a,3,4,5,6,9,10,14,19,20,21,22,22a-tetradecahydro-8H-7,10:13,15-dimethano cyclopropa[n][4,13,2,8, 11]benzodioxatriaza cyclohenicosine-8(12H)-carboxamide]	300	1.4			8.1
C=C[C@@H]1C[C@]1(NC(=O)[C@@H]1C[C@@H]2CN1C(=O)[C@H](C1CCCC1)NC(=O)O[C@@]1(C)C[C@@H]1CC/C=C/Cn1c(nc3cc(C)ccc3c1=O)O2)C(=O)NS(=O)(=O)C1CC1 [Example I-22, (1aS,5S,8S,10R,20E,23aS)-5-cyclopentyl-N-{(1R,2S)-1-[(cyclopropylsulfonyl)carbamoyl]-2-ethenylcyclopropyl}-1a,14-dimethyl-3,6,17-trioxo-1,1a,3,4,5,6,9,10,19,22,23,23a-dodecahydro-8H,17H-7,10-methano cyclopropa[18,19] [1,10,3,6,12]dioxatriaza cyclononadecino[11,12-b]quinazoline-8-carboxamide]	82.2	0.3			135
